Where two headings read alike, the source gives them in different places.
Key:
Assay type in all cases: physicochemical
[1] = Water solubility of solvent A at 20° C.; details: for Water solubility (% by mass): 20° C.
Protocol: When a compound is a salt in the present invention, the salt exists while dissociating into ions in an ink, but this is expressed as “containing a salt” for convenience. An aqueous inkjet ink may be described as just an “ink.” The physical property values are values at 20° C. unless otherwise specified.
This solvent A is a so-called poorly water-soluble compound (poorly water-soluble solvent), which is poorly dissolved in water. […] When water in the ink evaporates and the concentration increases, the solvent A cannot be completely dissolved in the ink to separate from the ink. Because the tips of non-printing nozzles are exposed to the atmosphere, water in the ink volatilizes particularly easily.

[2] = Surface tension of solvent A at 20° C.
Protocol: (§1) The present invention will be described in detail hereinafter by mentioning preferable embodiments. When a compound is a salt in the present invention, the salt exists while dissociating into ions in an ink, but this is expressed as “containing a salt” for convenience. An aqueous inkjet ink may be described as just an “ink.” The physical property values are values at 20° C. unless otherwise specified.
(§2) The vapor pressure of the solvent A at 20° C. is 0.5 mmHg or less, and the surface tension at 20° C. is 30 mN/m or more. When the vapor pressure is more than 0.5 mmHg, oil films formed on ejection ports evaporate, and the effect of suppressing water evaporation becomes weak. When the surface tension is less than 30 mN/m, the intermolecular force is weak. Therefore, oil films cannot be formed. The vapor pressure of the solvent A at 20° C. can be 0.2 mmHg or less. The surface tension of the solvent A at 20° C. can be 36 mN/m or more. Specific examples of the solvent A are illustrated in Table 1.

[3] = Vapor pressure of solvent A at 20° C.
Protocol: as §1, §2

[4] = Log partition coefficient of solvent A

Water solubility (% by mass) [1] | Surface tension (mN/m) [2] | Vapor pressure (mmHg) [3] | Log partition coefficient [4] | SMILES | water solubility of the solvent A in the prepared ink ([1]; solvent A of ink 1) | Vapor pressure (mmHg) ([3]; 20° C.)
2.2 % by mass | 39.7 mN/m | 0.1 mmHg |  | OCCc1ccccc1 [Phenethyl alcohol] |  | 
0.568 % by mass | 38.9 mN/m | 0 mmHg | 1.88 | OCCCc1ccccc1 [3-Phenyl-1-propanol] |  | 
0.1 % by mass | 38.3 mN/m | 0 mmHg | 2.4 | OCCCCc1ccccc1 [4-Phenyl-1-butanol] |  | 
4.29 % by mass | 39 mN/m | 0.1 mmHg | 1.03 | OCc1ccccc1 [Benzyl alcohol] |  | 

The next lines start with the compound.

SMILES | Water solubility (% by mass) [1] | Surface tension (mN/m) [2] | Vapor pressure (mmHg) [3] | Log partition coefficient [4] | water solubility of the solvent A in the prepared ink ([1]; solvent A of ink 1) | Vapor pressure (mmHg) ([3]; 20° C.)
OCCOc1ccccc1 [2-Phenoxyethanol] | 2.67 % by mass | 40 mN/m | 0 mmHg | 1.16 | 2.7% | 
CC(O)Cc1ccccc1 (stereo not shown) [1-Phenyl-2-propanol] | 0.58 % by mass | 37.3 mN/m |  | 1.71 |  | 0.1 mmHg
CC(O)COc1ccccc1 (stereo not shown) [1-Phenoxy-2-propanol] | 1.1 % by mass | 37.7 mN/m | 0 mmHg | 1.51 |  | 

— patent publication US20180371272A1, “AQUEOUS INK, INK CARTRIDGE AND IMAGE RECORDING METHOD” (CANON KABUSHIKI KAISHA, priority 2017, published 2018)
